According to patent US10435399B2, “HDAC6 inhibitory heterocyclic compound” (TAKEDA PHARMACEUTICAL COMPANY LIMITED, priority 2017, dated 2019):

Biological target: T1, HDAC6 enzyme (Homo sapiens, UniProt Q9UBN7)
T1 construct: transducing full length HDAC6 gene into Sf-9 insect cells; GST; purchased SignalChem; host or cells: Sf-9 insect cells
T1 sequence (Q9UBN7 1-1215): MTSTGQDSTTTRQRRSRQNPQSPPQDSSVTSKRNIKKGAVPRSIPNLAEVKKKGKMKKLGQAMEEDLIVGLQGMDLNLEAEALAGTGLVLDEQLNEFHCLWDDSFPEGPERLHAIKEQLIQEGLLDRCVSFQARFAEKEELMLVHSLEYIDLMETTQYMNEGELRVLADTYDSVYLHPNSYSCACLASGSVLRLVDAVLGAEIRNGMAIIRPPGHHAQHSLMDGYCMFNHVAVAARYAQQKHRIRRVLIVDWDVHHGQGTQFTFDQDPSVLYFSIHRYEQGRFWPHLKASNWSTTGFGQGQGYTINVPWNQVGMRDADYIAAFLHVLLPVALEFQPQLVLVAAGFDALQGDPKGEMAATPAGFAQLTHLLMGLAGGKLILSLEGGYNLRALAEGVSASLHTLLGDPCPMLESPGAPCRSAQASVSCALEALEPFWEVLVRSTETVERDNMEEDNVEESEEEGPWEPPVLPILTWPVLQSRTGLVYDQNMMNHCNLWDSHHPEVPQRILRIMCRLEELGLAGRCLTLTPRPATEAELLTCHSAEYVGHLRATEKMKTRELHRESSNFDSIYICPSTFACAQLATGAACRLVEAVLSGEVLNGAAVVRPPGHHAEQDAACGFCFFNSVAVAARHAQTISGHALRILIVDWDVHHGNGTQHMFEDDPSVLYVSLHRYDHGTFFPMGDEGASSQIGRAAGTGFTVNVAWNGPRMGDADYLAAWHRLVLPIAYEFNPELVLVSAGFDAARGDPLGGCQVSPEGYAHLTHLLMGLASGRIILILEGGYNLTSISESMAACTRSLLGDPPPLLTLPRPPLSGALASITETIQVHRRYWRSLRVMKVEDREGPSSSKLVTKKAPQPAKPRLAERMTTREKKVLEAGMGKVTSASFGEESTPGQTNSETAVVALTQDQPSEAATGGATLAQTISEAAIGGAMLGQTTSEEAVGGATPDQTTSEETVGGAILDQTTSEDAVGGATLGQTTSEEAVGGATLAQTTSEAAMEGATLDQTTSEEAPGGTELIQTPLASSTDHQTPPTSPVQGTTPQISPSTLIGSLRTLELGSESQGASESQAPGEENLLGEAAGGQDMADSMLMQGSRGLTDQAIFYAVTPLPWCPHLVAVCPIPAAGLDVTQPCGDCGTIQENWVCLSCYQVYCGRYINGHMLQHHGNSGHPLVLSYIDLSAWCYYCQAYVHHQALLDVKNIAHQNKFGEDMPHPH
Assay: HDAC6 enzyme inhibitory activity (HDAC-Glo I/II Assay kit)
Format: biochemical
Settings: 10 μM; wells without enzyme = 100% inhibition
How it was run: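 Inhibition is calculated as relative activity, taking luminescence in enzyme-free wells as complete inhibition. The enzyme, full-length and GST-purified after Sf-9 expression, was exposed to compound for 60 min at room temperature before a 20 min HDAC-Glo reaction.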

Structure (SMILES) | HDAC6 inhibitory rate (%) (10 μM)
O=C(NCC(F)(F)F)C1CC(F)(F)CCN1N1Cc2ccc(-c3nnc(C(F)F)o3)cc2C1=O (stereo not drawn) [Example 580, 1-(6-(5-(difluoromethyl)-1,3,4-oxadiazol-2-yl)-1-oxo-1,3-dihydro-2H-isoindol-2-yl)-4,4-difluoro-N-(2,2,2-trifluoroethyl)piperidine-2-carboxamide (Optical Isomer)] | 100

Same assay, conditions: 10 μM; wells without enzyme = 100% inhibition; read-out: HDAC6 inhibitory rate (%) (10 μM)

Structure (SMILES) | inhibition at 10 µM [%]
N#Cc1cccc(-c2c(F)cccc2N2Cc3ccc(-c4nnc(C(F)F)o4)cc3C2=O)c1 [Example 377, 2′-(6-(5-(difluoro-methyl)-1,3,4-oxadiazol-2-yl)-1-oxo-1,3-dihydro-2H-isoindol-2-yl)-6′-fluorobiphenyl-3-carbonitrile] | 101
O=C1c2cc(-c3nnc(C(F)F)o3)cnc2CN1[C@@H]1CCC(F)(F)C[C@H]1NC(=O)C(F)(F)C(F)(F)F [Example 640, N-((1R,2R)-2-(3-(5-(difluoromethyl)-1,3,4-oxadiazol-2-yl)-5-oxo-5,7-dihydro-6H-pyrrolo[3,4-b]pyridin-6-yl)-5,5-difluorocyclohexyl)-2,2,3,3,3-pentafluoropropanamide] | 100
O=C1c2cc(-c3nnc(C(F)F)o3)cc(F)c2CN1c1ccc(F)cc1-c1cnn(C(F)F)c1 [Example 381, 6-(5-(difluoro-methyl)-1,3,4-oxadiazol-2-yl)-2-(2-(1-(difluoro-methyl)-1H-pyrazol-4-yl)-4-fluorophenyl)-4-fluoroisoindolin-1-one] | 100
O=C1c2cc(-c3nnc(C(F)F)o3)ccc2CN1[C@@H]1CCCC[C@H]1NC(=O)C1(F)CCC1 [Example 77, N-((1R,2R)-2-(6-(5-(difluoromethyl)-1,3,4-oxadiazol-2-yl)-1-oxo-1,3-dihydro-2H-isoindol-2-yl)cyclohexyl)-1-fluorocyclobutanecarboxamide] | 100
O=C(Cc1ccccc1)N[C@@H]1CCCC[C@H]1N1Cc2ncc(-c3nnc(C(F)F)o3)cc2C1=O [Example 466, N-((1R,2R)-2-(3-(5-(difluoro-methyl)-1,3,4-oxadiazol-2-yl)-5-oxo-5,7-dihydro-6H-pyrrolo[3,4-b]pyridin-6-yl)cyclohexyl)-2-phenyl-acetamide] | 100
CC(C)(OC(=O)N[C@@H]1CCCC[C@H]1N1Cc2ncc(-c3nnc(C(F)F)o3)cc2C1=O)C(F)(F)F [Example 268, 1,1,1-trifluoro-2-methylpropan-2-yl ((1R,2R)-2-(3-(5-(difluoromethyl)-1,3,4-oxadiazol-2-yl)-5-oxo-5,7-dihydro-6H-pyrrolo[3,4-b]pyridin-6-yl)cyclohexyl)carbamate] | 100
O=C1c2cc(-c3nnc(C(F)F)o3)cnc2CN1Cc1cccc(-c2cnn(C(F)F)c2)c1 [Example 479, 3-(5-(difluoro-methyl)-1,3,4-oxadiazol-2-yl)-6-(3-(1-(difluoro-methyl)-1H-pyrazol-4-yl)benzyl)-6,7-dihydro-5H-pyrrolo[3,4-b] pyridin-5-one] | 100
N#Cc1cccc(-c2ccccc2N2Cc3c(F)cc(-c4nnc(C(F)F)o4)cc3C2=O)c1 [Example 376, 2′-(6-(5-(difluoro-methyl)-1,3,4-oxadiazol-2-yl)-4-fluoro-1-oxo-1,3-dihydro-2H-isoindol-2-yl)biphenyl-3-carbonitrile] | 101
O=C1c2cc(-c3nnc(C(F)F)o3)cnc2CN1[C@@H]1COCC[C@H]1Oc1c(F)cccc1F [Example 659, 1,5-anhydro-2,4-dideoxy-2-{3-[5-(difluoromethyl)-1,3,4-oxadiazol-2-yl]-5-oxo-5,7-dihydro-6H-pyrrolo[3,4-b]pyridin-6-yl}-3-O-(2,6-difluorophenyl)-threo-pentitol (optical isomer)] | 99
CC(C)(C)OC(=O)N1CC(F)(F)C[C@@H]1CN1Cc2c(F)cc(-c3nnc(C(F)F)o3)cc2C1=O [Example 352, tert-butyl (2R)-2-((6-(5-(difluoromethyl)-1,3,4-oxadiazol-2-yl)-4-fluoro-1-oxo-1,3-dihydro-2H-isoindol-2-yl)methyl)-4,4-difluoropyrrolidine-1-carboxylate] | 99
Cn1cc(C2=CCC(F)(F)CC2)c(N2Cc3ccc(-c4nnc(C(F)F)o4)cc3C2=O)n1 [Example 474, 2-(4-(4,4-difluorocyclo-hex-1-en-1-yl)-1-methyl-1H-pyrazol-3-yl)-6-(5-(difluoro-methyl)-1,3,4-oxadiazol-2-yl) isoindolin-1-one] | 99
Cn1cc(C(=O)NCC2CC2)c(N2Cc3ccc(-c4nnc(C(F)F)o4)cc3C2=O)n1 [Example 568, N-(cyclopropylmethyl)-3-(6-(5-(difluoromethyl)-1,3,4-oxadiazol-2-yl)-1-oxo-1,3-dihydro-2H-isoindol-2-yl)-1-methyl-1H-pyrazole-4-carboxamide] | 96
COC(=O)N1CC[C@@H](N2Cc3ncc(-c4nnc(C(F)F)o4)cc3C2=O)[C@@H](c2ccccc2)C1 [Example 194, methyl (3S,4R)-4-(3-(5-(difluoromethyl)-1,3,4-oxadiazol-2-yl)-5-oxo-5,7-dihydro-6H-pyrrolo[3,4-b]pyridin-6-yl)-3-phenylpiperidine-carboxylate] | 100
O=C1c2cc(-c3nnc(C(F)F)o3)ccc2CN1[C@@H]1CN(C(=O)C(F)(F)C(F)(F)F)CC[C@H]1c1ccc(F)cc1 (racemic) [Example 548, 6-(5-(difluoromethyl)-1,3,4-oxadiazol-2-yl)-2-((3SR,4SR)-4-(4-fluorophenyl)-1-(2,2,3,3,3-pentafluoropropanoyl)piperidin-3-yl)isoindolin-1-one] | 100
O=C1c2cc(-c3nnc(C(F)F)o3)ccc2CN1C1(Cc2ccccc2)CCOCC1 [Example 433, 2-(4-benzyl-tetrahydro-2H-pyran-4-yl)-6-(5-(difluoro-methyl)-1,3,4-oxadiazol-2-yl) isoindolin-1-one] | 101
CC(C)(C)OC(=O)N[C@@H]1CCCC[C@H]1N1Cc2ncc(-c3nnc(C(F)F)o3)cc2C1=O [Example 62, tert-butyl ((1R,2R)-2-(3-(5-(difluoromethyl)-1,3,4-oxadiazol-2-yl)-5-oxo-5,7-dihydro-6H-pyrrolo[3,4-b]pyridin-6-yl)cyclohexyl)carbamate] | 99
O=C1c2cc(-c3nnc(C(F)F)o3)ccc2CN1[C@@H]1CCCC(F)(F)[C@@H]1NC(=O)C(F)(F)C(F)F [Example 628, N-((1R,6R)-6-(6-(5-(difluoromethyl)-1,3,4-oxadiazol-2-yl)-1-oxo-1,3-dihydro-2H-isoindol-2-yl)-2,2-difluorocyclohexyl)-2,2,3,3-tetrafluoropropanamide] | 100
O=C1c2cc(-c3nnc(C(F)F)o3)ccc2CN1[C@@H]1CCCC[C@H]1n1cccn1 (racemic) [Example 514, 6-(5-(difluoromethyl)-1,3,4-oxadiazol-2-yl)-2-((1RS,2RS)-2-(1H-pyrazol-1-yl)cyclohexyl)isoindolin-1-one] | 99
CC(=O)N1CC[C@@H](N2Cc3ccc(-c4nnc(C(F)F)o4)cc3C2=O)[C@@H](c2ccccc2)C1 [Example 127, 2-((3S,4R)-1-acetyl-3-phenylpiperidin-4-yl)-6-(5-(difluoromethyl)-1,3,4-oxadiazol-2-yl)isoindolin-1-one] | 100
